For one assay, the target named is T1, Mucolipin-3 (Homo sapiens, UniProt Q8TDD5).
T1 sequence (Q8TDD5 whole entry): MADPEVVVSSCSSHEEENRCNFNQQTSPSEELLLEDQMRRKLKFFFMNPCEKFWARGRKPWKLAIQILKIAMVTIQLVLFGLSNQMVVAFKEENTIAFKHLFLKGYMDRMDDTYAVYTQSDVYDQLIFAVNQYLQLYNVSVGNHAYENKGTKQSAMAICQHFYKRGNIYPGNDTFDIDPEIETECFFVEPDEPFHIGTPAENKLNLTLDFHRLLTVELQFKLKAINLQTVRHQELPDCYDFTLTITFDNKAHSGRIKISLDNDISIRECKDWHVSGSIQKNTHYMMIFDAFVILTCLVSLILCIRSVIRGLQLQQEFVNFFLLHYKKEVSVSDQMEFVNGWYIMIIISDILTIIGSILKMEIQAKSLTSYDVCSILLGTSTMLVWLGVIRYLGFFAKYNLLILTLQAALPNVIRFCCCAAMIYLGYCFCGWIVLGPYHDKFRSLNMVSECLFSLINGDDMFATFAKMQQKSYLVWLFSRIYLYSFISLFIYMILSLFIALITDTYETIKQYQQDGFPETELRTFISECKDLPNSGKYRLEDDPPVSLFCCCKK
The assay can be described thus: Dose response cell-based high-throughput screening assay for agonists of the transient receptor potential channel ML3 (TRPML3). [Related pubchem assays: 1526, 1424, 1448 ]. Type of assay: functional.

Another assay addresses Ion channel NompC (Danio rerio, UniProt Q7T1G6). Put plainly: Fluorescence counterscreen assay for TRPML3 agonists: dose response cell-based high-throughput screening assay to identify agonists of the transient receptor potential channel N1 (TRPN1). [Related pubchem assays: 1526, 1424, 1448 ]. Type of assay: functional.
Assay [1] in a line: Luminescence Cell-Based Dose Retest to Confirm Inhibitors of Cancer Stem Cells. [Related pubchem assays (depositor defined):AID2717, AID2721]. Type of assay: functional. The note with it: Homo sapiens.
The target in assay [2] is Disintegrin and metalloproteinase domain-containing protein 17 (Homo sapiens, UniProt P78536). Put plainly: inhibition of ADAM17 substrate cleavage – biochemical, quenched FRET substrate, counter-screen for ADAM10 exosite inhibitor project, dose response (AID 743253).
The nature of assay [3]: Trypanosoma cruzi growth suppression in host cells – NIH3T3 host cells, beta-gal luminescence, confirmation (AID 2044).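 Further: intracellular parasites grown in NIH/3T3 mouse fibroblasts as host cells; luminescent beta-galactosidase reporter signal from transgenic T. cruzi replicating inside host cells; inhibitors lower the luminescence signal.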 Type of assay: functional, cell-based.
Assay [4] can be described thus: NIH3T3 cell viability loss – ATP luminescence, mouse fibroblasts, counter-screen, dose response (AID 2010).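 Further: cells exposed to compound for about 90 hours before reading.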 Type of assay: functional, cell-based. (In general: Counterscreens check selectivity or assay interference.)
Another assay concerns the target T2, Exodeoxyribonuclease V (Escherichia coli (strain K12), UniProt P04993+P07648+P08394).
T2 sequence (P04993 whole entry): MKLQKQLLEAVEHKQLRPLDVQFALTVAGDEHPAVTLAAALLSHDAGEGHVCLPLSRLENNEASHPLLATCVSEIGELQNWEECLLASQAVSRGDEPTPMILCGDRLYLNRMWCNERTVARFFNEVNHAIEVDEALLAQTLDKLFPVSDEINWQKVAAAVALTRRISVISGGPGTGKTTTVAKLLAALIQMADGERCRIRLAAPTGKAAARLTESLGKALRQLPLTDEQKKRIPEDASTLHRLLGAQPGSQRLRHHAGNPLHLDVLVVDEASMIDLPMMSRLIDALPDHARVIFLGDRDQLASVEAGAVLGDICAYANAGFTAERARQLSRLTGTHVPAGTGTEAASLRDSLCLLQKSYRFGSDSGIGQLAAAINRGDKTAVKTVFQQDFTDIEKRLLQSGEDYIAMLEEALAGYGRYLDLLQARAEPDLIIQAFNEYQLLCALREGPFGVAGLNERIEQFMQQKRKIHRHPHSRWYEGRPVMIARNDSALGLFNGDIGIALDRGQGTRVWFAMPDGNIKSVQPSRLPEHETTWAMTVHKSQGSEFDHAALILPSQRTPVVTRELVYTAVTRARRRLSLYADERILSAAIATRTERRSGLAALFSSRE
T2 sequence (P07648 whole entry): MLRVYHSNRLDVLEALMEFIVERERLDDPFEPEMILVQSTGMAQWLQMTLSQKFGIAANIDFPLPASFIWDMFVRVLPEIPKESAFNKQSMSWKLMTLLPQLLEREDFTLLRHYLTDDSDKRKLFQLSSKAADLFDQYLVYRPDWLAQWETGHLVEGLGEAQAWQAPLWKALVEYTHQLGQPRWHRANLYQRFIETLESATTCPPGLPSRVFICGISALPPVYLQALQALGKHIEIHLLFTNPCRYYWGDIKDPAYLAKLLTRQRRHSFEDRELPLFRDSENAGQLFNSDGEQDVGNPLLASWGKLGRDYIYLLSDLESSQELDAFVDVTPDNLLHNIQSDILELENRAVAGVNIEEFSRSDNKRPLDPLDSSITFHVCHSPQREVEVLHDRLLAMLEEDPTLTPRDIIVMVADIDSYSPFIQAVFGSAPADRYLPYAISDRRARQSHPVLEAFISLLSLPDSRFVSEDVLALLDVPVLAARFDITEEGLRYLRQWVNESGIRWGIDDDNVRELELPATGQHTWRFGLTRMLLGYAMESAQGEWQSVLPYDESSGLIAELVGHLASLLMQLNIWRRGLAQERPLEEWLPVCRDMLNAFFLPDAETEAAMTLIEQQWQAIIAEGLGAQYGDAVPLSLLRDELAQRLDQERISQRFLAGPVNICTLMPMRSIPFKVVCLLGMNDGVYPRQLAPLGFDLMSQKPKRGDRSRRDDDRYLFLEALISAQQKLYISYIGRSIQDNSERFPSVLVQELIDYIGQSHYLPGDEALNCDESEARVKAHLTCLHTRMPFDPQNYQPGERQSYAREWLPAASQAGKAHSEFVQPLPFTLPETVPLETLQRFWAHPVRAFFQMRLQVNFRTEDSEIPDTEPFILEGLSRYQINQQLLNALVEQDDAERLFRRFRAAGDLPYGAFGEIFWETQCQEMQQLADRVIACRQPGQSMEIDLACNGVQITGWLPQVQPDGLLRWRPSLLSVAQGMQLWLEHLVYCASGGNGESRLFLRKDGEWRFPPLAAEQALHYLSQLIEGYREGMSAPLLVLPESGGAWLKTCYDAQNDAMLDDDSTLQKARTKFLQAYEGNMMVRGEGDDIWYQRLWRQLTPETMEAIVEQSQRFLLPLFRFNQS
T2 sequence (P08394 whole entry): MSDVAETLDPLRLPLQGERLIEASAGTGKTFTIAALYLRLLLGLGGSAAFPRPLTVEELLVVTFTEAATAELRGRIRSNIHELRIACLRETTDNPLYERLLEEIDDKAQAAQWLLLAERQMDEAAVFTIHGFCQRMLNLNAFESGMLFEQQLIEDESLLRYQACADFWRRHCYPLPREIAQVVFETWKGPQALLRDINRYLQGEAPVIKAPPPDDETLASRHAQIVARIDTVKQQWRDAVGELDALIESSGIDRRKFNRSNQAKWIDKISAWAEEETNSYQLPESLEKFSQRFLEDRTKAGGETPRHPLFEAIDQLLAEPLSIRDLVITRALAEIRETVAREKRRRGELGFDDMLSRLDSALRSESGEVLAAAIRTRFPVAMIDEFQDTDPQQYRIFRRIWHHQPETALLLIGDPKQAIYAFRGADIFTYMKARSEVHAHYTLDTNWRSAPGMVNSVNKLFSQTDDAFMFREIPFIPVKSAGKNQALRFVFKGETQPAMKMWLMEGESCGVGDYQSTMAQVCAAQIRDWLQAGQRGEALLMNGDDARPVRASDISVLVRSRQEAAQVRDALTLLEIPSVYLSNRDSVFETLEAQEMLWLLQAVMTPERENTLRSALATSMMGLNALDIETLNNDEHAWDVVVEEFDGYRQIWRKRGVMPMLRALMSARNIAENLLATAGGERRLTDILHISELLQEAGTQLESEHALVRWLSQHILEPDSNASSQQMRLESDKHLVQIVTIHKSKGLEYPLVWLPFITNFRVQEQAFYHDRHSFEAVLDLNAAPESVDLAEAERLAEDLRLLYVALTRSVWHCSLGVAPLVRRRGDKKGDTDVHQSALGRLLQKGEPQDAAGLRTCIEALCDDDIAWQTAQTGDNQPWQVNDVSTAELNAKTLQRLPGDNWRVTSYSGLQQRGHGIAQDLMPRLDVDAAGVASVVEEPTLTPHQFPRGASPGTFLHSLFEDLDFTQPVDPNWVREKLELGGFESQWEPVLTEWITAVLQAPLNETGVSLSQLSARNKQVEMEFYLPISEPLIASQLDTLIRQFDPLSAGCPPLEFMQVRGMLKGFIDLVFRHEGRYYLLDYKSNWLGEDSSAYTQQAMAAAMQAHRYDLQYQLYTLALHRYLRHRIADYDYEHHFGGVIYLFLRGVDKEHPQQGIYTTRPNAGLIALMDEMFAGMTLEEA
Put plainly: RecBCD inhibition via phage-restricted bacterial growth – absorbance, V66 E. coli, mutant T4 phage, counter-screen for AddAB inhibitor project, dose response (AID 492957). The format is functional, cell-based, Escherichia coli str. K-12 substr. MG1655.

In the next assay the target is Nonstructural protein 1 (Influenza A virus, UniProt Q194T2). The format is functional, Influenza A virus (A/California/07/2009(H1N1)).
A short description of assay [5]: Counterscreen for AddAB inhibitors: absorbance-based bacterial cell-based high throughput dose response assay for inhibitors of bacterial viability. [Related pubchem assays (depositor defined):AID435030, AID449728, AID449731, AID488942, AID488955, AID488956]. The format is functional.
The target in the next assay is Galanin receptor type 3 (Homo sapiens, UniProt O60755). The assay can be described thus: Fluorescence-based cell-based primary high throughput dose response assay to identify antagonists of the Galanin Receptor 3 (GalR3). Type of assay: functional.
Assay [6] is described as follows: cells. Type of assay: functional, cell-based. The note with it: HEK-CNG.
The nature of assay [7]: cells.
The target of a further assay is Paired box protein Pax-8 (Homo sapiens, UniProt Q06710). The assay can be described thus: PAX8 transcriptional activity inhibition in RMG-I – RMG-I cells, luciferase, cherry-pick, dose response (AID 687027).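 Further: luciferase reporter driven by Pax8 target thyroperoxidase promoter measured by SteadyGlo luminescence.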 The format is functional, cell-based.
The nature of assay [8]: A2780 cell killing – plate reader, dry powder samples, cytotoxicity control, dose response (AID 743046). Type of assay: functional, cell-based.
Assay [9] can be described thus: OVCAR-3 cell viability loss – plate reader, dry powder samples, PAX8 inhibitor project, dose response (AID 743044). Type of assay: functional, cell-based.
The nature of assay [10]: IGROV1 cell killing – plate reader, dry powder samples, PAX8 inhibitor project, dose response (AID 743043). The format is functional, cell-based. The note with it: IGROV-1.
A short description of assay [11]: OVCAR8 cell viability loss – plate reader, dry powder samples, PAX8 project, dose response (AID 743197). The format is functional, cell-based. The note with it: OVCAR-8.
Assay [12] can be described thus: anti-trypanosomal activity in BESM host cells – imaging, CA-I/72 strain, bovine embryo skeletal muscle, dry powder, dose response (AID 651885). Type of assay: functional, cell-based.
The target in assay [13] is Potassium channel subfamily K member 9 (Homo sapiens, UniProt Q9NPC2). Put plainly: KCNK9 flux blockade, concentration-response – cell-based, FluxOR thallium flux, selectivity assay for TASK1 inhibitor project, SAR follow-up (AID 652211).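 Further: potency is for inhibitors of the channel.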 Type of assay: functional.
The target of assay [14] is Potassium channel subfamily K member 3 (Rattus norvegicus, UniProt O54912). Put plainly: SAR analysis for the identification of selective inhibitors of the two-pore domain potassium channel TASK1(KCNK3):Automated Electrophysiology. The format is functional.
The target in assay [15] is Potassium channel subfamily K member 3 (Homo sapiens, UniProt O14649). Put plainly: inhibition of human KCNK3 channel flux – CHO cells, FluxOR thallium flux, SAR follow-up (AID 652212). The format is functional.

Each structure is given as a SMILES string. Active and inactive are the calls of the source. A value given as a limit tells only on which side of the number the result lay.

The values that follow come from ChEMBL document CHEMBL1201862, “PubChem BioAssay data set” (2004).

Potassium channel subfamily K member 3 (Rattus norvegicus, UniProt O54912), sequence (O54912 whole entry, the tested form may be a part): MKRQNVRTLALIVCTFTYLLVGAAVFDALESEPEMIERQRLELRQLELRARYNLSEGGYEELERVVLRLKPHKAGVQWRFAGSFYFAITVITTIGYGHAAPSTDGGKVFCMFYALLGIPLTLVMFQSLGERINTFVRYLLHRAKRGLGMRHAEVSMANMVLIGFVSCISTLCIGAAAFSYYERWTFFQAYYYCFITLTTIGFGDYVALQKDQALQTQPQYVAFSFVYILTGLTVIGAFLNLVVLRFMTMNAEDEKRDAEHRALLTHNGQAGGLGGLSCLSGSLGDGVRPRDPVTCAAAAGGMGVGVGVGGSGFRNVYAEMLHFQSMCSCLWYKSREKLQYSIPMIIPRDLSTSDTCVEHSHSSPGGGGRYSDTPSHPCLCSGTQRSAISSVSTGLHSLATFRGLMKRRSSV
Ion channel NompC, sequence (Q7T1G6 whole entry): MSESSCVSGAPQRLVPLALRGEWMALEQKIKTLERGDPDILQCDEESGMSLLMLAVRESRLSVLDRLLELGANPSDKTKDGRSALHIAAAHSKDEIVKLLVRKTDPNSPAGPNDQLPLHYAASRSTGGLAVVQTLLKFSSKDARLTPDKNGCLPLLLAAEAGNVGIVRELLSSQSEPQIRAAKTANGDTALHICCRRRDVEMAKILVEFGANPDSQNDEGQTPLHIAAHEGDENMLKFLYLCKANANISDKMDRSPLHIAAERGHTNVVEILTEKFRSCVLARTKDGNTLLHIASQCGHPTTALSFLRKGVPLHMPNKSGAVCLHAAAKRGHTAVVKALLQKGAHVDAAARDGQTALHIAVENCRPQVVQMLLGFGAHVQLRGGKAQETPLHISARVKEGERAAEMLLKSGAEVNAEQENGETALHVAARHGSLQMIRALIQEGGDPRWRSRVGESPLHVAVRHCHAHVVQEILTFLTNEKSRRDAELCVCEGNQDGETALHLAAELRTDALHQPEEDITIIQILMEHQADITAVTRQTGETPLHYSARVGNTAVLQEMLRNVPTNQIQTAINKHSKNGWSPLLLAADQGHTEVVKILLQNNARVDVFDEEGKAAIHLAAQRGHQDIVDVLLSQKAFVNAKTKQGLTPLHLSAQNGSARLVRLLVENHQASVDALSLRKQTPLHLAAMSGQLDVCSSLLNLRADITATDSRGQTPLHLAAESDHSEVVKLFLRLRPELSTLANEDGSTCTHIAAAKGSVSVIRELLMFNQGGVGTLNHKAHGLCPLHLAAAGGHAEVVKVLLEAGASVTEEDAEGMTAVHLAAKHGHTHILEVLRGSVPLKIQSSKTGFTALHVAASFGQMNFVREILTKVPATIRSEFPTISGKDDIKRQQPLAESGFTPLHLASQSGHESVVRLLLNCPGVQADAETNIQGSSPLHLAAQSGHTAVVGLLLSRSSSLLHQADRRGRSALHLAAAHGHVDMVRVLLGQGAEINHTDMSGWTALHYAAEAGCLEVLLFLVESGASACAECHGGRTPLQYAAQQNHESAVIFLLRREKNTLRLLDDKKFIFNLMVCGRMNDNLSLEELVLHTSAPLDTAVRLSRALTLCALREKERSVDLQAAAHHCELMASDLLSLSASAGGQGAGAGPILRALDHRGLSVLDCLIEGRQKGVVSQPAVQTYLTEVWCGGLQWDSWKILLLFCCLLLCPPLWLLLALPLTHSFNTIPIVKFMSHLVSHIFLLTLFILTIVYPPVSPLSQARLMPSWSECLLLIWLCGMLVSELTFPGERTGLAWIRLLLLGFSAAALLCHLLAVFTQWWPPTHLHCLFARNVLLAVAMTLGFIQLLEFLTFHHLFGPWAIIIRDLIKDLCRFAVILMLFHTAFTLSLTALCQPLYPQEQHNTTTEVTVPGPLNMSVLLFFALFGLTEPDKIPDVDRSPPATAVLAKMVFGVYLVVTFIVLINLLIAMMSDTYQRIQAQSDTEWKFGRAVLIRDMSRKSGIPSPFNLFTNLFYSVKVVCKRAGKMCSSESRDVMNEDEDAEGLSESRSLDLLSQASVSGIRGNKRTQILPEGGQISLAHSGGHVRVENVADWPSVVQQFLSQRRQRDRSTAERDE
Nonstructural protein 1, sequence (Q194T2 whole entry): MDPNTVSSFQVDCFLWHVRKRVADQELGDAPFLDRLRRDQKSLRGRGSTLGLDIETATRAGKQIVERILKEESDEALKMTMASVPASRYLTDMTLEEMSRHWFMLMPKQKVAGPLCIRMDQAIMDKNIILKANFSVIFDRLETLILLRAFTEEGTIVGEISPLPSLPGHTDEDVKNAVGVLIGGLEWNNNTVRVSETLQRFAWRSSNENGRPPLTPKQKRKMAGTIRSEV
Disintegrin and metalloproteinase domain-containing protein 17, sequence (P78536 whole entry, the tested form may be a part): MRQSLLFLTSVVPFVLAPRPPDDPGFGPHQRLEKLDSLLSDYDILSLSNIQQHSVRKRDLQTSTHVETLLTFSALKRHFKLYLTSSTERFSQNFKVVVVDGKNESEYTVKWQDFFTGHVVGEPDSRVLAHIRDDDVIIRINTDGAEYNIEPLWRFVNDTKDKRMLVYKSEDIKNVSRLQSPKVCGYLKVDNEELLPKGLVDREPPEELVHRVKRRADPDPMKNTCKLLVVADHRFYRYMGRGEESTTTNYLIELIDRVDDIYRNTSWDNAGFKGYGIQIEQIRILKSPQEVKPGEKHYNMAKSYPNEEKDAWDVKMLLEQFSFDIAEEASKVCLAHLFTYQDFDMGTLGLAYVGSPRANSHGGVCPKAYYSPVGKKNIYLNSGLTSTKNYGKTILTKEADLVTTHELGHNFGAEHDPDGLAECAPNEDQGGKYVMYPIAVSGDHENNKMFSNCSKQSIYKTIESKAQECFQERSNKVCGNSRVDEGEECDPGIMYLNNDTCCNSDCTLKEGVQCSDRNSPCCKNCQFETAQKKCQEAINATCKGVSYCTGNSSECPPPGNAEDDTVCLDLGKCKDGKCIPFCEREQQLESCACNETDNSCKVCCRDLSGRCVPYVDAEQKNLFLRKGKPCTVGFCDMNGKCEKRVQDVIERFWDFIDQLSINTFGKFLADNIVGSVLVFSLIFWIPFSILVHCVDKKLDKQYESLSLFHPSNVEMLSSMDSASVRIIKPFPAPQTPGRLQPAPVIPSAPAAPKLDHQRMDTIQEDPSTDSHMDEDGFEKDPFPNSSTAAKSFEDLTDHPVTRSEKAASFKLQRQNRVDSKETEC
Potassium channel subfamily K member 9, sequence (Q9NPC2 whole entry, the tested form may be a part): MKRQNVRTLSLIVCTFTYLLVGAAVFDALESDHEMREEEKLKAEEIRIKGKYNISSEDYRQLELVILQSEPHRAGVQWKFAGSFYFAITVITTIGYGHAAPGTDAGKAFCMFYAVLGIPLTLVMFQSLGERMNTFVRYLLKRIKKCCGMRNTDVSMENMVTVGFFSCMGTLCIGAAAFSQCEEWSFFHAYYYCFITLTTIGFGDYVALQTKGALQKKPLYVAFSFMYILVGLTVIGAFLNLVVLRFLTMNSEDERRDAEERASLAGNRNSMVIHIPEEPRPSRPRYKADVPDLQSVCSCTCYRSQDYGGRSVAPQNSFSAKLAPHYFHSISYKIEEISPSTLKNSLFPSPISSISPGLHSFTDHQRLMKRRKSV
Paired box protein Pax-8, sequence (Q06710 whole entry): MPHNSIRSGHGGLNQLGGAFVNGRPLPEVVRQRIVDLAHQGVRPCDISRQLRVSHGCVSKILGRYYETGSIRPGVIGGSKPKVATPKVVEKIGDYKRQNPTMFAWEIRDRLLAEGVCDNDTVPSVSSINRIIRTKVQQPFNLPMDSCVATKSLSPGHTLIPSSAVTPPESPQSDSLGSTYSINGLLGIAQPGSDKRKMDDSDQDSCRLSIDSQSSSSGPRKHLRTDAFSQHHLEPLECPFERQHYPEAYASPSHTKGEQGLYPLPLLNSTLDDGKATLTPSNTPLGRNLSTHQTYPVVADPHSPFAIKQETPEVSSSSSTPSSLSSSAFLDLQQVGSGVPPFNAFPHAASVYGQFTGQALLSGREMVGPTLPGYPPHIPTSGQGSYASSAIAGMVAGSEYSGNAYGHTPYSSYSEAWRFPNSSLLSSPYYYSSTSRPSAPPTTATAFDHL
Potassium channel subfamily K member 3 (Homo sapiens, UniProt O14649), sequence (O14649 whole entry): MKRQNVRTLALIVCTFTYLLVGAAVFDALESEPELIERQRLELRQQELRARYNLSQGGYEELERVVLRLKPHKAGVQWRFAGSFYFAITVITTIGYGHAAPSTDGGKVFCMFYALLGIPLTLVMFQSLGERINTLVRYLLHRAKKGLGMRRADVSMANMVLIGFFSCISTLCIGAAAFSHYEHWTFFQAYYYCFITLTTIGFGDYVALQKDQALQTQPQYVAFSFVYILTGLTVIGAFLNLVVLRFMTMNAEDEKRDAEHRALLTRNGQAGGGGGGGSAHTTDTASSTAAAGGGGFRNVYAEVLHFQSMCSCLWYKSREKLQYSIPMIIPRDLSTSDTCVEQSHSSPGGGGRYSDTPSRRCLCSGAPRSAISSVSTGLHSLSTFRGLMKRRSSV
Galanin receptor type 3, sequence (O60755 whole entry): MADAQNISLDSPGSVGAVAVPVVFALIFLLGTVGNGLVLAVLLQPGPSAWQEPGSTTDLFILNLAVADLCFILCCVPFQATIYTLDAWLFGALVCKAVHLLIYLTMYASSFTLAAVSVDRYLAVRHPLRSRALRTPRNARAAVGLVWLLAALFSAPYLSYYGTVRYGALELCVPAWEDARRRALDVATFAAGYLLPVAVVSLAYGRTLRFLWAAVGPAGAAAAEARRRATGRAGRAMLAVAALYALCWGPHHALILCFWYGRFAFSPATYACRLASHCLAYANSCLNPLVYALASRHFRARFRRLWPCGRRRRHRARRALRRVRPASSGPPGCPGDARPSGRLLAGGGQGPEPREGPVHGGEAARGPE

Regarding `CCOC(=O)c1c(CSc2ccc(C)cc2)oc2ccc(O)cc12`, the EC50 was 4.33 µM (active) at Mucolipin-3 and > 29.9 µM (not active) at Ion channel NompC. Moreover, the AC50 in assay [1] was 3.94 µM (active). In addition, the IC50 in [2] was > 69.6 µM (inactive).

In the case of `C=CCN1/C(=C/c2ccc3cc(C)ccc3[n+]2CC)C=Cc2ccccc21`, the EC50 in assay [3] was < 0.1 µM (active); in [4], 6.53 µM (active); in the assay “cells [6]”, > 29.9 µM (inactive); in the assay “cells [7]”, 0.054 µM (active). Besides, the IC50 on Exodeoxyribonuclease V is > 39.5 µM (inactive); at Nonstructural protein 1, 11.7 µM (active); in assay [5] it was 35.8 µM (inactive); at Galanin receptor type 3, > 0.123 µM (active).

On to `C[C@@H]1CN([C@@H](C)CO)C(=O)c2cc(NS(=O)(=O)c3ccc(F)cc3)ccc2O[C@@H](C)CCCCO[C@@H]1CN(C)Cc1ccc(C(F)(F)F)cc1`, for which the AC50 on Paired box protein Pax-8 is 8.92 µM (active); in assay [8], 62.8 µM (active); in [9], 40.5 µM (active); in [10], 57.6 µM (active); in assay [11], 55.4 µM (active).

In the case of `CC(C)N1C[C@H](C)[C@@H](CN(C)C(=O)OC(C)(C)C)Oc2c(C#N)cccc2C1=O`, the IC50 in [12] was > 20 µM (inactive).

For `COc1ccccc1NC(=O)c1cccc(NC(=O)c2ccccc2C(F)(F)F)c1`, the figures for the IC50 in assay [13], in assay [14] and in assay [15] were 1.32 µM (active), 0.149 µM (active) and 0.042 µM (active), respectively.

One may read the EC50 as the concentration at which the effect is half-maximal. As a reminder, the AC50 is the midpoint of the concentration-response curve, whichever way the signal moves. The term IC50 denotes the concentration needed to halve the response being measured.
